Test results taken from ChEMBL document CHEMBL5550171, “Poly (ADP-ribose) polymerase (PARP) inhibitors as anticancer agents: An outlook on clinical progress, synthetic strategies, biological activity, and structure-activity relationship” (Eur J Med Chem, 2024).

How the values were obtained:
A549 [1] = experiment: Antiproliferative activity against human A549 cells assessed as reduction in cell growth measured for 72 hrs by MTT assay; assay type: functional, cell-based; settings: A549, 72 h
A549 [2] = experiment: Induction of apoptosis in human A549 cells at 2 uM incubated for 48 hrs by Annexin V-FITC/PI staining based flow cytometry analysis relative to control; assay type: functional
A549 [3] = experiment: Induction of apoptosis in human A549 cells at 1 uM incubated for 48 hrs by Annexin V-FITC/PI staining based flow cytometry analysis relative to control; assay type: functional
A549 [4] = experiment: Induction of apoptosis in human A549 cells at 4 uM incubated for 48 hrs by Annexin V-FITC/PI staining based flow cytometry analysis relative to control; assay type: functional
MDA-MB-231 [5] = experiment: Antiproliferative activity against human MDA-MB-231 cells assessed as reduction in cell viability at 1 uM after 24 hrs by CCK8 assay relative to control; assay type: functional
MDA-MB-231 [6] = experiment: Antitumor activity against human MDA-MB-231 cells xenografted in mouse assessed as tumor growth inhibition at 40 mg/kg, po relative to control; assay type: functional; settings: read-out: TGI
[7] = target: T1, Protein cereblon/Poly [ADP-ribose] polymerase 1 (Homo sapiens, UniProt P09874+Q96SW2); experiment: PROTAC activity at CRBN/PARP1 in human MDA-MB-231 cells assessed as induction of PARP1 degradation at 0.1 uM relative to control; assay type: cell-based
Target sequence in this assay (P09874 2-1014 limits assumed): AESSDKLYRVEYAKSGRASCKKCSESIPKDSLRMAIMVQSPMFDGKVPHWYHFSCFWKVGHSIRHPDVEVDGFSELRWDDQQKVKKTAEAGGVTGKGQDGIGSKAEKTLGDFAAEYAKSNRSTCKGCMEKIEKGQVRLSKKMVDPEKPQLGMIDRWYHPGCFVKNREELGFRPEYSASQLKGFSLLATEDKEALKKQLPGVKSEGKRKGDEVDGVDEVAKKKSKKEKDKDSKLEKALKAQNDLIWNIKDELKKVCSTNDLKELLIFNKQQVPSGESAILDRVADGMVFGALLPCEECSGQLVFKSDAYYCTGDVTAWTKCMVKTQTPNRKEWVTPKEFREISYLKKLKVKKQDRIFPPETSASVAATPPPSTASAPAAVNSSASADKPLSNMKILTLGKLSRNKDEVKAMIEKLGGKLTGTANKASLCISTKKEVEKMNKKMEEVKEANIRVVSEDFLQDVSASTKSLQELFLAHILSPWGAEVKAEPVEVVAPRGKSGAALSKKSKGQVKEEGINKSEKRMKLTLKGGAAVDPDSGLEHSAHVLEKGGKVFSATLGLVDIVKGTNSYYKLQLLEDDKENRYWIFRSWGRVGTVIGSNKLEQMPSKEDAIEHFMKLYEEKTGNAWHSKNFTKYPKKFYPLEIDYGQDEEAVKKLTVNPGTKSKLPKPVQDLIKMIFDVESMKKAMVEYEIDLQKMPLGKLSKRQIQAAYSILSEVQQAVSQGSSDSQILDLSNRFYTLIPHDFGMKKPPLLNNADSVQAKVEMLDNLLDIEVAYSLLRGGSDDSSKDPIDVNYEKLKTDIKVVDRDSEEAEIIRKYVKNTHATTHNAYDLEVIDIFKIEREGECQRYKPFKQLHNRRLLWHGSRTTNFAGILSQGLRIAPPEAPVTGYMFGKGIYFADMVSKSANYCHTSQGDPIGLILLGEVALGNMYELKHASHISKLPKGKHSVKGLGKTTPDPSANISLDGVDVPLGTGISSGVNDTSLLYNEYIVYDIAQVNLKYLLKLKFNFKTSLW
Target sequence in this assay (Q96SW2 whole entry partner): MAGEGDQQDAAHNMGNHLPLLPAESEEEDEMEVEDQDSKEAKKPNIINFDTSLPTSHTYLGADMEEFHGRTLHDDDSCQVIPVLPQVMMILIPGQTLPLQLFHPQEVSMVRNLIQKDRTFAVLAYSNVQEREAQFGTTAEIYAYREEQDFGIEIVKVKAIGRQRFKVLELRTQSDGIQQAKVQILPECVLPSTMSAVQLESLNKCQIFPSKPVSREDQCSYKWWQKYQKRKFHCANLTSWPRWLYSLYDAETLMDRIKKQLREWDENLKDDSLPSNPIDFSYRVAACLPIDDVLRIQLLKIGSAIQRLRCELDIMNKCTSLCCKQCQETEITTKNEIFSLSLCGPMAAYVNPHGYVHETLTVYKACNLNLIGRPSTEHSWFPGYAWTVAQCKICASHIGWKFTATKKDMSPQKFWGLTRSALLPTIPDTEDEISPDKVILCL

[8] = target: T1, Protein cereblon/Poly [ADP-ribose] polymerase 1; experiment: PROTAC activity at CRBN/PARP1 in human MDA-MB-231 cells assessed as […]; assay type: cell-based
Target sequence in this assay (P09874 whole entry): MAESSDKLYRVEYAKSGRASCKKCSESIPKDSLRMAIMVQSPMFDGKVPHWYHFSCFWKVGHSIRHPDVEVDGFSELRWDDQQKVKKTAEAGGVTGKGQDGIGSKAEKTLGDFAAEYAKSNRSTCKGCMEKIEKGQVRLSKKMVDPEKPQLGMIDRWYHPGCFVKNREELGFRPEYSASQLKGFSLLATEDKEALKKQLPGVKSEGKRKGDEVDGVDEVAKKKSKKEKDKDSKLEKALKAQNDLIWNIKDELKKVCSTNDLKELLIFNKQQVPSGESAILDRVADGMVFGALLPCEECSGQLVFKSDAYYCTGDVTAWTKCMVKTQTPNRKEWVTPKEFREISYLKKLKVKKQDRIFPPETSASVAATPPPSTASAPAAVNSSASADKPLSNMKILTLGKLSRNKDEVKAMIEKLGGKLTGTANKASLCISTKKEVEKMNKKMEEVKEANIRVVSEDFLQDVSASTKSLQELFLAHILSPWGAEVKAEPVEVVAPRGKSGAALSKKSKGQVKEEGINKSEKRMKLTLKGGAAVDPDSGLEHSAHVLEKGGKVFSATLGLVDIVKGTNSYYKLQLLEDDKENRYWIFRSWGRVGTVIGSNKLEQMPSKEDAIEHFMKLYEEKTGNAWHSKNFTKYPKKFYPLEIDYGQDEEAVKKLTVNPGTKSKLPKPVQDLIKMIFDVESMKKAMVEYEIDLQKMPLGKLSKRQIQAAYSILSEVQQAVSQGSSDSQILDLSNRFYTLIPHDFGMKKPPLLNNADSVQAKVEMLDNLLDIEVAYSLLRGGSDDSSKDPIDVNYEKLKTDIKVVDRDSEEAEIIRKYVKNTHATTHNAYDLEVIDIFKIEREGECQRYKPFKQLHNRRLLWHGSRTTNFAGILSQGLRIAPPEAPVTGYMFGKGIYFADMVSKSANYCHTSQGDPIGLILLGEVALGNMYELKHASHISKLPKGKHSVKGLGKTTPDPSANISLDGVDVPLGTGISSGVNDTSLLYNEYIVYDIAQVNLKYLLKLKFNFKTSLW
Target sequence in this assay (Q96SW2 whole entry): as the sequence (Q96SW2 whole entry partner) above

MDA-MB-231 [9] = experiment: Antiproliferative activity against human MDA-MB-231 cells assessed as reduction in cell viability after 24 hrs by CCK8 assay; assay type: functional, cell-based; settings: MDA-MB-231, 24 h
MDA-MB-231 [10] = experiment: Antiproliferative activity against human MDA-MB-231 cells assessed as reduction in cell viability at 10 uM after 24 hrs by CCK8 assay relative to control; assay type: functional

Structure (SMILES) | IC50 (A549 [1]) [nM] | Activity (A549 [2]) [%] | Activity (A549 [3]) [%] | Activity (A549 [4]) [%] | Activity (MDA-MB-231 [5]) [%] | inhibition in vivo at 40 mg/kg (MDA-MB-231 [6]) [%] | Activity [7] [%] | DC50 [8] [nM] | IC50 (MDA-MB-231 [9]) [nM] | Activity (MDA-MB-231 [10]) [%]
O=C1CCN(Cc2cn(-c3ccccc3F)nn2)C2(CCCCC2)c2ccccc21 | 1950 | 10.9 | 8 | 19 |  |  |  |  |  | 
NC(=O)c1cccc2cn(-c3ccc(C4CCCN(CCC5CCN(CCC6CCN(c7ccc8c(c7)C(=O)N(C7CCC(=O)NC7=O)C8=O)CC6)CC5)C4)cc3)nc12 (stereo not given) |  |  |  |  | 65.84 | 71.4 | 88 | 25.2 | 1040 | 11.78
